Laboratory results taken from patent publication US20120252804A1, “COMPOSITION AND METHOD FOR CONTROLLING ARTHROPOD PESTS” (SUMITOMO CHEMICAL COMPANY, LIMITED, priority 2009, published 2012).

How the values were obtained:
Assay type in all cases: in vivo
[1] = tested on: brown planthopper (Nilaparvata lugens); assay: Test Example 1: pesticidal effect against brown planthopper by foliage spray treatment of rice; conditions: composition of the compound and pyriproxyfen; foliage spray on rice seedlings, third-instar larvae, after 5 days; summary of Table 43
[2] = tested on: Sweetpotato Whitefly (Bemisia tabaci); assay: Test Example 2: pesticidal effect of leaf dipping treatment on Sweetpotato Whitefly; conditions: composition of the compound and pyriproxyfen; cabbage leaf disk with eggs dipped 30 seconds, after 8 days; summary of Table 44
[3] = tested on: brown planthopper (Nilaparvata lugens); assay: Test Example 3: pesticidal effect against brown planthopper by foliage spray treatment of rice; conditions: composition of the compound and pyriproxyfen; foliage spray on rice seedlings, third-instar larvae, after 5 days; summary of Table 45
[4] = tested on: Sweetpotato Whitefly (Bemisia tabaci); assay: Test Example 4: pesticidal effect of leaf dipping treatment on Sweetpotato Whitefly; conditions: composition of the compound and pyriproxyfen; cabbage leaf disk with eggs dipped 30 seconds, after 8 days; summary of Table 46

SMILES: FC(F)(F)c1ccc2oc(-c3ccncc3Cl)nc2c1 [Compound 18, 2-(3-chloropyridin-4-yl)-5-(trifluoromethyl)benzoxazole]
- pesticidal efficacy against brown planthopper (Nilaparvata lugens) [1]: high pesticidal efficacy
- pesticidal efficacy on Sweetpotato Whitefly (Bemisia tabaci) [2]: high pesticidal efficacy

SMILES: FC(F)(F)COc1cnccc1-c1nc2cc(C(F)(F)F)ccc2o1 [Compound 39, 2-[3-(2,2,2-trifluoroethyl)oxypyridin-4-yl]-5-(trifluoromethyl)benzoxazole]
- pesticidal efficacy against brown planthopper (Nilaparvata lugens) [3]: high pesticidal efficacy
- pesticidal efficacy on Sweetpotato Whitefly (Bemisia tabaci) [4]: high pesticidal efficacy

SMILES: CC(C)Oc1cnccc1-c1nc2cc(C(F)(F)F)ccc2o1 [Compound 70, 2-(3-isopropoxypyridin-4-yl)-5-(trifluoromethyl)benzoxazole]
- pesticidal efficacy against brown planthopper (Nilaparvata lugens) [1]: high pesticidal efficacy
- pesticidal efficacy on Sweetpotato Whitefly (Bemisia tabaci) [2]: high pesticidal efficacy

SMILES: FC(F)(F)Sc1ccc2oc(-c3ccncc3Cl)nc2c1 [Compound 77, 2-(3-chloropyridin-4-yl)-5-(trifluoromethylthio)benzoxazole]
- pesticidal efficacy against brown planthopper (Nilaparvata lugens) [1]: high pesticidal efficacy
- pesticidal efficacy on Sweetpotato Whitefly (Bemisia tabaci) [2]: high pesticidal efficacy

SMILES: CCc1cnccc1-c1nc2cc(OC(F)(F)F)ccc2o1 [Compound 109, 2-(3-ethylpyridin-4-yl)-5-(trifluoromethoxy)benzoxazole]
- pesticidal efficacy against brown planthopper (Nilaparvata lugens) [1]: high pesticidal efficacy
- pesticidal efficacy on Sweetpotato Whitefly (Bemisia tabaci) [2]: high pesticidal efficacy

SMILES: CC(C)COc1cnccc1-c1nc2cc(C(F)(F)F)ccc2o1 [Compound 116, 2-(3-isobutoxypyridin-4-yl)-5-(trifluoromethyl)benzoxazole]
- pesticidal efficacy against brown planthopper (Nilaparvata lugens) [3]: high pesticidal efficacy
- pesticidal efficacy on Sweetpotato Whitefly (Bemisia tabaci) [4]: high pesticidal efficacy

SMILES: CC(C)(C)COc1cnccc1-c1nc2cc(C(F)(F)F)ccc2o1 [Compound 117, 2-[3-(2,2-dimethylpropoxy)pyridin-4-yl]-5-(trifluoromethyl)benzoxazole]
- pesticidal efficacy against brown planthopper (Nilaparvata lugens) [3]: high pesticidal efficacy
- pesticidal efficacy on Sweetpotato Whitefly (Bemisia tabaci) [4]: high pesticidal efficacy

SMILES: FC(F)(F)c1ccc2oc(-c3ccncc3-c3cccnc3)nc2c1 [Compound 128, 4-(5-trifluoromethyl-benzoxazole-2-yl)-[3,3]bipyridinyl]
- pesticidal efficacy against brown planthopper (Nilaparvata lugens) [1]: high pesticidal efficacy
- pesticidal efficacy on Sweetpotato Whitefly (Bemisia tabaci) [2]: high pesticidal efficacy

SMILES: FC(F)(F)c1cnc2oc(-c3ccncc3Cl)nc2c1 [Compound 139, 2-(3-chloropyridin-4-yl)-6-(trifluoromethyl)oxazolo[5,4-b]pyridine]
- pesticidal efficacy against brown planthopper (Nilaparvata lugens) [1]: high pesticidal efficacy
- pesticidal efficacy on Sweetpotato Whitefly (Bemisia tabaci) [2]: high pesticidal efficacy

SMILES: CCc1cnccc1-c1nc2cc(C(F)(F)F)cnc2o1 [Compound 143, 2-(3-ethylpyridin-4-yl)-6-(trifluoromethyl)oxazolo[5,4-b]pyridine]
- pesticidal efficacy against brown planthopper (Nilaparvata lugens) [1]: high pesticidal efficacy
- pesticidal efficacy on Sweetpotato Whitefly (Bemisia tabaci) [2]: high pesticidal efficacy

SMILES: CSc1cnccc1-c1nc2cc(C(F)(F)F)cnc2o1 [Compound 146, 2-(3-methylthiopyridin-4-yl)-6-(trifluoromethyl)oxazolo[5,4-b]pyridine]
- pesticidal efficacy against brown planthopper (Nilaparvata lugens) [1]: high pesticidal efficacy
- pesticidal efficacy on Sweetpotato Whitefly (Bemisia tabaci) [2]: high pesticidal efficacy

SMILES: FC(F)(F)COc1cnccc1-c1nc2cc(C(F)(F)F)cnc2o1 [Compound 163]
- pesticidal efficacy against brown planthopper (Nilaparvata lugens) [3]: high pesticidal efficacy
- pesticidal efficacy on Sweetpotato Whitefly (Bemisia tabaci) [4]: high pesticidal efficacy
